Data as given in PMC10625055, “A novel Bruton's tyrosine kinase inhibitor JDB175 shows potent efficacy to suppress central nervous system lymphoma” (MedComm, 2023).

Molecular target: Bruton's tyrosine kinase (BTK) (Homo sapiens, UniProt Q06187)
Assay: radiometric kinase assay, recombinant human kinase
Type: biochemical

Bruton's tyrosine kinase (BTK), sequence (Q06187 2-659): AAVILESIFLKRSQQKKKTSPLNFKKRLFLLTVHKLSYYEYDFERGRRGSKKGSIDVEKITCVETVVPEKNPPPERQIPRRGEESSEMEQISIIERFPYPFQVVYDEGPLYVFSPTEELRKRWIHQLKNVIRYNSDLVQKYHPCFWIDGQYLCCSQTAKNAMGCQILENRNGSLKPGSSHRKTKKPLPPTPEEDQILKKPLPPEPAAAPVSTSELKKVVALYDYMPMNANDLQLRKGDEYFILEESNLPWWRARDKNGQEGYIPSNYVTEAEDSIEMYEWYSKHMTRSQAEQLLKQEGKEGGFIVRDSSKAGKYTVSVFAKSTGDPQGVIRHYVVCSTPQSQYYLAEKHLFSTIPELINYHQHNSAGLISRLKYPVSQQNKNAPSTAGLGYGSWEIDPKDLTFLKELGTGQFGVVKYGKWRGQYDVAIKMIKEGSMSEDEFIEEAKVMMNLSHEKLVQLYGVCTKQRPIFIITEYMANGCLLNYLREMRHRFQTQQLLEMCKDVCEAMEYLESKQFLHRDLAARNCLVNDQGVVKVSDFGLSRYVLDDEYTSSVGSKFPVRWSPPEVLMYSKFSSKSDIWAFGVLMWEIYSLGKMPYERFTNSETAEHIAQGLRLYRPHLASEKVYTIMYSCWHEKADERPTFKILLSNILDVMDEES

- IC50: 2.1 nM
Structure (SMILES): C=CC(=O)N1CCC[C@@H](c2nn(-c3ccc(Oc4cccc(F)c4F)cc3)c3cncc(F)c23)C1 [JDB175]
